Results from patent publication US9233965B2, “3,4-dihydropyrrolo[1,2-A]pyrazine-2,8(1H)-dicarboxamide derivatives, preparation thereof and therapeutic use thereof for diseases involving casein kinase 1 epsilon and/or casein kinase 1 delta” (SANOFI, priority 2010, dated 2016).

Biological target: casein kinase 1 epsilon (CK1 epsilon) (Homo sapiens (Human), UniProt P49674)
Assay: Test A: inhibitory activity on CK1 epsilon, casein phosphorylation assay on ATP-33P filter plate
Format: biochemical
Details: IC50 values or IC50 ranges (result of several experiments), ATP 10 μM final
Experimental: The capacity of the compounds of the invention to inhibit the phosphorylation of casein by casein kinase 1 epsilon and/or delta may be evaluated according to the procedures described in document US 2005/0 131 012.
Test A: Inhibitory Activity on CK1 Epsilon Measured by Assay on an ATP-^33P Filter Plate
The effect of the compounds on inhibition of the phosphorylation of casein by the enzyme casein kinase 1 epsilon (CK1 epsilon) is measured, using a casein assay via filtration of ATP-^33P in vitro.
Casein kinase 1 epsilon (0.58 mg/ml) is obtained via fermentation and purification processes performed according to methods that are well known to those skilled in the art, or may also be obtained from Invitrogen Corporation™ (human CK1 epsilon).
The compounds are tested at five different concentrations so as to generate IC50 values, i.e. the concentration at which a compound is capable of inhibiting the enzymatic activity by 50%, or alternatively the percentage of inhibition at a concentration of 10 micromolar.
“U”-bottomed Falcon plates are prepared by placing 5 μL of solutions of the compounds according to the invention at concentrations of 10, 1, 0.1, 0.01 or 0.001 μM in different wells. The solutions of the compounds according to the invention at these various concentrations are prepared by diluting in a test buffer (Tris 50 mM pH 7.5, MgCl2 […], DTT 2 mM and EGTA 1 mM) a stock solution in DMSO at a concentration of 10 mM. Next, 5 μL of dephosphorylated casein are added to a final concentration of 0.2 μg/μL, 20 μL of CK1 epsilon to a final concentration of 3 ng/μL, and 20 μL of ATP-^33P to a final concentration of 0.02 μCi/μL mixed with cold ATP (10 μM final—approximately 2×10^6 CPM per well). The final total test volume per well is equal to 50 μL.
The “U”-bottomed Falcon® test plate mentioned above is vortexed, and then incubated at room temperature for 2 hours. After 2 hours the reaction is stopped by adding an ice-cold solution of 65 μL of cold ATP (2 mM) prepared in test buffer.
100 μL of the reaction mixture are then transferred from the “U”-bottomed Falcon® plate into Millipore® MAPH filter plates, preimpregnated with 25 μL of ice-cold 100% TCA.
The Millipore MAPH filter plates are agitated gently and are left to stand at room temperature for at least 30 minutes to precipitate the proteins.
After 30 minutes, the filter plates are sequentially washed and filtered with 2×150 μL of 20% TCA, 2×150 μL of 10% TCA and 2×150 μL of 5% TCA (6 washes in total per plate/900 μL per well).
The plates are left to dry overnight at room temperature. Next, 40 μL of Microscint-20 Packard® scintillation liquid are added per well and the plates are closed in a leaktight manner. The radiation emitted by each well is then measured for 2 minutes in a TopCount NXT Packard® scintillation counter, in which the values of CPM/well are measured.
The percentage inhibition of the capacity of the enzyme to phosphorylate the substrate (casein) is determined for each concentration of test compound. These inhibition data expressed as percentages are used to calculate the IC50 value for each compound compared with the controls.
The kinetic studies determined the KM value for ATP as being 21 μM in this test system.
Table 2 below gives the IC50 values or the IC50 inhibition ranges (result of several experiments) for the phosphorylation of Casein Kinase 1 Epsilon for a number of compounds according to the invention.

Sequence of casein kinase 1 epsilon (CK1 epsilon) (P49674 whole entry): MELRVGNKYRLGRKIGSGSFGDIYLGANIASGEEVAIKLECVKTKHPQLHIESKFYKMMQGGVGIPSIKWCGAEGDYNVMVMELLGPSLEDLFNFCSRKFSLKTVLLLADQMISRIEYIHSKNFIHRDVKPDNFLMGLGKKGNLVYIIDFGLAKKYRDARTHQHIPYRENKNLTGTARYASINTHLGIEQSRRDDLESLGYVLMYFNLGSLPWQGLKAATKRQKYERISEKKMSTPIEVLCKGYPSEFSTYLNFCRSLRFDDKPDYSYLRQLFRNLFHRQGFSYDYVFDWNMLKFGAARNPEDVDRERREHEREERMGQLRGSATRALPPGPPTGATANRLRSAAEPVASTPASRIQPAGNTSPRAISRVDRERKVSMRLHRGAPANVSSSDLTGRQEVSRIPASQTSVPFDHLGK

Row | Structure (SMILES) | IC50
1 | CC(C)CNC(=O)N1CCn2c(c(C(N)=O)c(-c3ccccc3)c2C2CC2)C1 [Compound 9, 6-cyclo-propyl-7-phenyl-N^2-(iso-butyl)-3,4-dihydropyrrolo[1,2-a]pyrazine-2,8(1H)-dicarboxamide] | 49 nM
2 | Cc1c(-c2ccc(Oc3ccccc3)cc2)c(C(N)=O)c2n1CCN(C(=O)NC(C)(C)C)C2 [Compound 5, N^2-tert-butyl-6-methyl-7-(4-phenoxyphenyl)-3,4-dihydropyrrolo[1,2-a]pyrazine-2,8(1H)-dicarboxamide] | 34 to 78 nM
3 | Cc1nnc(-c2ccc(-c3c(C(N)=O)c4n(c3C3CC3)CCN(C(=O)NC(C)(C)C)C4)cc2)o1 [Compound 23, N^2-tert-butyl-6-cyclo-propyl-7-[4-(5-methyl-1,3,4-oxadiazol-2-yl)phenyl]-3,4-dihydropyrrolo[1,2-a]pyrazine-2,8(1H)-dicarboxamide] | 65 nM
4 | CN(C)C(=O)c1cccc(-c2c(C(N)=O)c3n(c2C2CC2)CCN(C(=O)NC(C)(C)C)C3)c1 [Compound 17, N^2-tert-butyl-6-cyclo-propyl-7-[3-(dimethylcarbamoyl)phenyl]-3,4-dihydropyrrolo[1,2-a]pyrazine-2,8(1H)-dicarboxamide] | 958 nM
5 | CC(C)(C)NC(=O)N1CCn2c(c(C(N)=O)c(-c3ccc(C4CCCCC4)cc3)c2C2CC2)C1 [Compound 14, N^2-tert-butyl-7-(4-cyclo-hexylphenyl)-6-cyclo-propyl-3,4-dihydropyrrolo[1,2-a]pyrazine-2,8(1H)-dicarboxamide] | 136 to 1090 nM
6 | CN(C)S(=O)(=O)Nc1cccc(-c2c(C(N)=O)c3n(c2C2CC2)CCN(C(=O)NC(C)(C)C)C3)c1 [Compound 26, N^2-tert-butyl-6-cyclo-propyl-7-{3-[(dimethylsulfamoyl)amino]phenyl}-3,4-dihydropyrrolo[1,2-a]pyrazine-2,8(1H)-dicarboxamide] | 521 nM
7 | CC(C)NC(=O)N1CCn2c(c(C(N)=O)c(-c3ccccc3)c2C2CC2)C1 [Compound 7, 6-cyclo-propyl-7-phenyl-N^2-(iso-propyl)-3,4-dihydropyrrolo[1,2-a]pyrazine-2,8(1H)-dicarboxamide] | 42 nM
8 | CC(C)(C)NC(=O)N1CCn2c(c(C(N)=O)c(-c3ccc(OC(F)(F)F)cc3)c2C2CC2)C1 [Compound 44, N^2-tert-butyl-6-cyclo-propyl-7-[4-(trifluoromethoxy)phenyl]-3,4-dihydropyrrolo[1,2-a]pyrazine-2,8(1H)-dicarboxamide] | 33 nM
9 | CC(C)(C)NC(=O)N1CCn2cc(-c3ccccc3)c(C(N)=O)c2C1 [Compound 1, N^2-tert-butyl-7-phenyl-3,4-dihydropyrrolo[1,2-a]pyrazine-2,8(1H)-dicarboxamide] | 12 to 35 nM
10 | CC(C)(C)NC(=O)N1CCn2c(c(C(N)=O)c(-c3ccc(C#N)cc3)c2C2CC2)C1 [Compound 22, N^2-tert-butyl-7-(4-cyanophenyl)-6-cyclo-propyl-3,4-dihydropyrrolo[1,2-a]pyrazine-2,8(1H)-dicarboxamide] | 25 nM
11 | C[C@@H]1CC(NC(=O)N2CCn3c(Cl)c(-c4cccc(F)c4)c(C(N)=O)c3C2)C[C@H](C)O1 (stereo partly drawn) [Compound 100, cis-6-chloro-N^2-(2,6-dimethyl-tetrahydro-2H-pyran-4-yl)-7-(3-fluorophenyl)-3,4-dihydropyrrolo[1,2-a]pyrazine-2,8(1H)-dicarboxamide] | > 1 nM
12 | CC(C)(C)NC(=O)N1CCn2c(c(C(N)=O)c(-c3cccc(OC(F)(F)F)c3)c2C2CC2)C1 [Compound 35, N^2-tert-butyl-6-cyclo-propyl-7-[3-(trifluoromethoxy)phenyl]-3,4-dihydropyrrolo[1,2-a]pyrazine-2,8(1H)-dicarboxamide] | 25 nM
13 | CC(C)(C)NC(=O)N1CCn2c(c(C(N)=O)c(-c3ccc(C(F)(F)F)cc3)c2C2CC2)C1 [Compound 24, N^2-tert-butyl-6-cyclo-propyl-7-[4-(trifluoromethyl)phenyl]-3,4-dihydropyrrolo[1,2-a]pyrazine-2,8(1H)-dicarboxamide] | 84 nM

Continued, values first:

Row | IC50 | Structure (SMILES)
14 | 1 to 7 nM | COc1cccc(-c2c(C(N)=O)c3n(c2C2CC2)CCN(C(=O)NC(C)(C)C)C3)c1 [Compound 32, N^2-tert-butyl-6-cyclo-propyl-7-(3-methoxyphenyl)-3,4-dihydropyrrolo[1,2-a]pyrazine-2,8(1H)-dicarboxamide]
15 | 2 to 4 nM | CC(C)(C)NC(=O)N1CCn2c(c(C(N)=O)c(-c3ccc(-c4ccccc4)cc3)c2C2CC2)C1 [Compound 15, 7-(biphenyl-4-yl)-N^2-tert-butyl-6-cyclo-propyl-3,4-dihydropyrrolo[1,2-a]pyrazine-2,8(1H)-dicarboxamide]
16 | 2 nM | NC(=O)c1c(-c2cccc(F)c2)c(Cl)n2c1CN(C(=O)NC1CCC(O)(C(F)(F)F)CC1)CC2 (stereo not drawn) [Compound 85, trans-6-chloro-7-(3-fluorophenyl)-N^2-(4-hydroxy-4-trifluoromethyl-cyclo-hexyl)-3,4-dihydropyrrolo[1,2-a]pyrazine-2,8(1H)-dicarboxamide]
17 | 1 nM | CC1(O)CCC(NC(=O)N2CCn3c(Cl)c(-c4cccc(F)c4)c(C(N)=O)c3C2)CC1 (stereo not drawn) [Compound 84, trans-6-chloro-7-(3-fluorophenyl)-N^2-(4-hydroxy-4-methyl-cyclo-hexyl)-3,4-dihydropyrrolo[1,2-a]pyrazine-2,8(1H)-dicarboxamide]
18 | 25 nM | NC(=O)c1c(-c2ccccc2)c(C2CC2)n2c1CN(C(=O)NCC1CCCCC1)CC2 [Compound 50, N^2-(cyclo-hexylmethyl)-6-cyclo-propyl-7-phenyl-3,4-dihydropyrrolo[1,2-a]pyrazine-2,8(1H)-dicarboxamide]
19 | 1 to 3 nM | COc1ccc(-c2c(C(N)=O)c3n(c2C)CCN(C(=O)NC(C)(C)C)C3)cc1 [Compound 4, N^2-tert-butyl-7-(4-methoxyphenyl)-6-methyl-3,4-dihydropyrrolo[1,2-a]pyrazine-2,8(1H)-dicarboxamide]
20 | 4 to 11 nM | NC(=O)c1c(-c2cccc(F)c2)c(Cl)n2c1CN(C(=O)NC1CCS(=O)(=O)C1)CC2 (stereo not shown) [Compound 102, 6-chloro-N^2-(1,1-dioxydotetrahydrothiophen-3-yl)-7-(3-fluorophenyl)-3,4-dihydropyrrolo[1,2-a]pyrazine-2,8(1H)-dicarboxamide]
21 | 1 to 2 nM | CSc1ccc(-c2c(C(N)=O)c3n(c2C2CC2)CCN(C(=O)NC(C)(C)C)C3)cc1 [Compound 48, N^2-tert-butyl-6-cyclo-propyl-7-[4-(methylsulfanyl)phenyl]-3,4-dihydropyrrolo[1,2-a]pyrazine-2,8(1H)-dicarboxamide]
22 | 5 to 11 nM | CC(C)(C)NC(=O)N1CCn2c(c(C(N)=O)c(-c3cccc(F)c3)c2C2CC2)C1 [Compound 46, N^2-tert-butyl-6-cyclo-propyl-7-(3-fluorophenyl)-3,4-dihydropyrrolo[1,2-a]pyrazine-2,8(1H)-dicarboxamide]
23 | 16 nM | CC(C)(C)NC(=O)N1CCn2c(c(C(N)=O)c(-c3ccc(OCc4ccc(F)cc4)c(Cl)c3)c2C2CC2)C1 [Compound 42, N^2-tert-butyl-7-{3-chloro-4-[(4-fluorobenzyl)oxy]phenyl}-6-cyclo-propyl-3,4-dihydropyrrolo[1,2-a]pyrazine-2,8(1H)-dicarboxamide]
24 | 3 to 6 nM | Cc1cccc(-c2c(C(N)=O)c3n(c2C2CC2)CCN(C(=O)NC(C)(C)C)C3)c1 [Compound 11, N^2-tert-butyl-6-cyclo-propyl-7-(3-methylphenyl)-3,4-dihydropyrrolo[1,2-a]pyrazine-2,8(1H)-dicarboxamide]
25 | 9 to 24 nM | NC(=O)c1c(-c2ccccc2)c(Cl)n2c1CN(C(=O)NC1CCS(=O)(=O)C1)CC2 (stereo not shown) [Compound 101, 6-chloro-N^2-(1,1-dioxydotetrahydrothiophen-3-yl)-7-phenyl-3,4-dihydropyrrolo[1,2-a]pyrazine-2,8(1H)-dicarboxamide]
